Where “and” joins values, the source holds several entries; their conditions need not be identical. Equal values may be shown once.
Assays:
[1] = tested on: washed human red blood cells; assay: Hemolysis assay with washed human red blood cells; type: cell-based; settings: washed human RBCs; for H10: concentration producing 10% hemolysis; for H50: concentration producing 50% hemolysis
Experimental: The blood was transferred from 1 EDTA tube to a 50 mL conical tissue culture tube and the volume was brought up to 50 mL with PBS.
The blood was centrifuged for 10 minutes at 1500 RPM. The supernatant was removed and the blood was resuspended up to 50 mL with PBS. Next the blood was centrifuged for 10 minutes at 1500 RPM.
The supernatant was removed, and 2.0 mL of packed red blood cells was carefully transferred, using positive displacement pipet, into a fresh conical tissue culture tube. Next, 48 mL PBS was added to achieve a 4% washed RBC solution.
Next, 25, 50, 100 and 200 uM stock solutions of test sample in phosphate buffered saline (PBS) as follows:
Next, 0.5 mL of 4% washed RBC was added to 0.5 mL test sample dilutions (in duplicate). The final concentration of test sample was 50% of working stock solution.
The samples were capped or sealed with Parafilm and the samples were gently mixed. […] The samples were centrifuged for 10 minutes at 1500 RPM. […] Absorbance was measured at 550 nm vs. a water blank. Next, H10 and H50 were determined by graphing Absorbance vs. Test Sample Concentration.

RXF 393 = assay: NCI growth inhibition screen, renal panel; type: cell-based, human; design: key: = means equivalent activity; + means that it appears to be significantly better (i.e., by ˜2x); < means it appears to be less active than ET18OCH3 (˜2x); a combination like =/+ or </+ means that activity is dependent upon the isomer; a combination like =/+ or </+ means that activity is dependent upon the isomer; settings: RXF 393, Renal; from GI50s
Experimental: (§1) Candidates deemed suitable for in vivo testing were then synthesized in large scale quantities and some of this material was sent to the NCI's Developmental Therapeutics Program for a battery of growth inhibitory studies against various human tumor cell lines (60 cell lines, 9 different panels). The remainder of the material was used to assess in vivo efficacy using murine tumor models. Additionally, studies were conducted on the lead candidates to discern mechanism of action with particular emphasis on these agents apoptotic ability as measured by caspase 3 activity. The details (materials and methods) for these various assays are described further in the following discussion.
(§2) Ten compounds were also sent to NCI's Drug Discovery Program for screening against numerous human tumor cell lines (9 panels total: renal ovarian, colon, CNS, non-small cell lung, leukemia, breast, melanoma, and prostate). The data are shown in FIGS. 2a-i which also include data regarding D- and L-ET-18-OCH3 (listed as L-EL and D-EL in the figures). Upon examining the data, one is struck by how 1R and 1a′S standout in comparison to the other compounds, especially for the renal, ovarian, colon, and CNS panels.

SF-268 = assay: NCI growth inhibition screen, CNS panel; type: cell-based, human; design: key: = means equivalent activity; + means that it appears to be significantly better (i.e., by ˜2x); < means it appears to be less active than ET18OCH3 (˜2x); a combination like =/+ or </+ means that activity is dependent upon the isomer; a combination like =/+ or </+ means that activity is dependent upon the isomer; settings: SF-268, CNS; from GI50s
Experimental: as §1, §2

SF-539 = assay: NCI growth inhibition screen, CNS panel; type: cell-based, human; design: key: = means equivalent activity; + means that it appears to be significantly better (i.e., by ˜2x); < means it appears to be less active than ET18OCH3 (˜2x); a combination like =/+ or </+ means that activity is dependent upon the isomer; a combination like =/+ or </+ means that activity is dependent upon the isomer; settings: SF-539, CNS; from GI50s
Experimental: as §1, §2

SNB-19 = assay: NCI growth inhibition screen, CNS panel; type: cell-based, human; design: key: = means equivalent activity; + means that it appears to be significantly better (i.e., by ˜2x); < means it appears to be less active than ET18OCH3 (˜2x); a combination like =/+ or </+ means that activity is dependent upon the isomer; a combination like =/+ or </+ means that activity is dependent upon the isomer; settings: SNB-19, CNS; from GI50s
Experimental: as §1, §2

U-251 = assay: NCI growth inhibition screen, CNS panel; type: cell-based, human; design: key: = means equivalent activity; + means that it appears to be significantly better (i.e., by ˜2x); < means it appears to be less active than ET18OCH3 (˜2x); a combination like =/+ or </+ means that activity is dependent upon the isomer; a combination like =/+ or </+ means that activity is dependent upon the isomer; settings: U-251, CNS; from GI50s
Experimental: as §1, §2

HS 578T = assay: NCI growth inhibition screen, breast panel; type: cell-based, human; design: key: = means equivalent activity; + means that it appears to be significantly better (i.e., by ˜2x); < means it appears to be less active than ET18OCH3 (˜2x); a combination like =/+ or </+ means that activity is dependent upon the isomer; a combination like =/+ or </+ means that activity is dependent upon the isomer; settings: from GI50s
Experimental: as §1, §2

MDA-MB-231/ATCC = assay: NCI growth inhibition screen, breast panel; type: cell-based, human; design: key: = means equivalent activity; + means that it appears to be significantly better (i.e., by ˜2x); < means it appears to be less active than ET18OCH3 (˜2x); a combination like =/+ or </+ means that activity is dependent upon the isomer; a combination like =/+ or </+ means that activity is dependent upon the isomer; settings: from GI50s
Experimental: as §1, §2

MDA-MB-435 = assay: NCI growth inhibition screen, breast panel; type: cell-based, human; design: key: = means equivalent activity; + means that it appears to be significantly better (i.e., by ˜2x); < means it appears to be less active than ET18OCH3 (˜2x); a combination like =/+ or </+ means that activity is dependent upon the isomer; a combination like =/+ or </+ means that activity is dependent upon the isomer; settings: MDA-MB-435, Breast; from GI50s
Experimental: as §1, §2

MDA-N = assay: NCI growth inhibition screen, breast panel; type: cell-based, human; design: key: = means equivalent activity; + means that it appears to be significantly better (i.e., by ˜2x); < means it appears to be less active than ET18OCH3 (˜2x); a combination like =/+ or </+ means that activity is dependent upon the isomer; a combination like =/+ or </+ means that activity is dependent upon the isomer; settings: from GI50s
Experimental: as §1, §2

NCI/ADR-RES = assay: NCI growth inhibition screen, breast panel; type: cell-based, human; design: key: = means equivalent activity; + means that it appears to be significantly better (i.e., by ˜2x); < means it appears to be less active than ET18OCH3 (˜2x); a combination like =/+ or </+ means that activity is dependent upon the isomer; a combination like =/+ or </+ means that activity is dependent upon the isomer; settings: from GI50s
Experimental: as §1, §2

Row | SMILES | H10 [1] | H50 [1] | Performance as compared to ET-18-O—CH3 (RXF 393) | Performance as compared to ET-18-O—CH3 (SF-268) | Performance as compared to ET-18-O—CH3 (SF-539) | Performance as compared to ET-18-O—CH3 (SNB-19) | Performance as compared to ET-18-O—CH3 (U-251) | Performance as compared to ET-18-O—CH3 (HS 578T) | Performance as compared to ET-18-O—CH3 (MDA-MB-231/ATCC) | Performance as compared to ET-18-O—CH3 (MDA-MB-435) | Performance as compared to ET-18-O—CH3 (MDA-N) | Performance as compared to ET-18-O—CH3 (NCI/ADR-RES)
1 | CCCCCCCCCCCCCCCCCCOC[C@@H](COP(=O)([O-])OCC[N+](C)(C)C)OS(C)(=O)=O [1a′S] | 16.5 µM | 21.5 µM | 32 | 0 | 8192 | 0 | =/+ | 0 | 0 | 0 | 0 | 0
2 | CCCCCCCCCCCCCCCCCCOCC(COP(=O)([O-])OCC[N+](C)(C)C)OS(C)(=O)=O (stereo not drawn) [Compound 1aR] | 16 µM and 13 µM | 21.5 µM and 17 µM | = | = | + | = | + | = | = | = | = | =

Reference: US20060122153A1, “Antineoplastic ether lipid compounds with modifications at the sn-2 carbon” (priority 2003, published 2006)
